Test results taken from publication PMC5771238 (Neuropharmacology, 2017).
Read-outs that look alike come from different tables or passages of the source.

What was measured:
CB1 receptor [1] = biological target: T1, CB1 receptor (Mus musculus, UniProt P47746); test: CP55,940-stimulated [35S]GTPγS binding in mouse cerebellar membranes; assay type: biochemical; details: for alpha ± SEM (binding cooperativity with CP55,940) / beta ± SEM (efficacy modifier): allosteric operational model, logKA=−6.6, Emax=100, TA=14, TB=0, n=1, LogKB from [3H]SR141716 binding
T1 sequence (P47746 whole entry): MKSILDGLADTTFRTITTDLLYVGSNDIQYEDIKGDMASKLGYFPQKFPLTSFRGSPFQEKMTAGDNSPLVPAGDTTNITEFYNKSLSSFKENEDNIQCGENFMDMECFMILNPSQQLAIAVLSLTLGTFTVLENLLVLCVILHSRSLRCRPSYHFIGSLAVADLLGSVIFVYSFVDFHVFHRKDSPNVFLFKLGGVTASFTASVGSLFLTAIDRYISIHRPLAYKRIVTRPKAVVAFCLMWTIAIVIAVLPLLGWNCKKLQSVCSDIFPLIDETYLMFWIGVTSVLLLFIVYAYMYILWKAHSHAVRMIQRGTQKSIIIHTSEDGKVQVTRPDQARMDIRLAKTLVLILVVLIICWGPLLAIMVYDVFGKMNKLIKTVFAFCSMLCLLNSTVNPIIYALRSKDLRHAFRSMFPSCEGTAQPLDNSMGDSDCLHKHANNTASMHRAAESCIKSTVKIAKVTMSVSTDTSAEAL

CB1 receptor [2] = biological target: T1, CB1 receptor; test: biochemical; details: pKB ± SEM
C57/Bl6J mice = test: THC drug discrimination; assay type: in vivo, mouse; details: for effect on response rates / effect on THC's discriminative stimulus effects / substitution for THC when administered alone: second group; for effect on THC's discriminative stimulus effects: modulators 10 mg/kg, rimonabant 1 mg/kg with 5.6 mg/kg THC
ICR mice = test: Cannabinoid tetrad tests; assay type: in vivo, mouse; details: for effect on THC's effects on activity, hypothermia, catalepsy / effect on THC's anti-nociceptive effect: 10 mg/kg modulator i.p. 10 min before 30 mg/kg THC; for effect on THC's anti-nociceptive effect: tail flick
mice = test: Feeding in mice; assay type: in vivo, mouse; details: 30 mg/kg; unpublished results
CB1 receptor [3] = biological target: T1, CB1 receptor
CB1 receptor [4] = biological target: T1, CB1 receptor; test: [3H]CP55,940 specific binding
CB1 receptor [5] = biological target: T1, CB1 receptor; test: THC-stimulated [35S]GTPγS binding in mouse cerebellar membranes; assay type: biochemical; details: pregnenolone 1 – 10 μM
[6] = 1 nM [3H]SR141716, allosteric ternary complex model, no GDP
[7] = 3 parameter non-linear regression

SMILES	alpha ± SEM (binding cooperativity with CP55,940) (CB1 receptor [1])	beta ± SEM (efficacy modifier) (CB1 receptor [1])	effect on response rates (C57/Bl6J mice)	effect on THC's discriminative stimulus effects (C57/Bl6J mice)	effect on THC's effects on activity, hypothermia, catalepsy (ICR mice)	effect on THC's anti-nociceptive effect (ICR mice)	logα ± SEM (cooperativity with [3H]SR141716) (CB1 receptor [3]; [6])	Top ± SEM (maximal increase in specific binding of [3H]CP55,940) (CB1 receptor [4]; [7])	effect on THC-stimulated [35S]GTPγS binding (CB1 receptor [5])	substitution for THC when administered alone (C57/Bl6J mice)	further results
O=C(Nc1ccc(Cl)cc1)Nc1cccc(-c2cccc(N3CCCC3)n2)c1 [PSNCBAM-1, 1-(4-chlorophenyl)-3-{3-[6-(pyrrolidin-1-yl)pyridin-2-yl]phenyl}urea]	55.01 ± 3.76	0.003 ± 0.001	Neither compound decreased response rates	did not alter THC’s discriminative stimulus effects	did not alter	decreased THC’s anti-nociceptive effect	−0.73 ± 0.12	419.1 ± 8.75	produced insurmountable antagonism		IC50 (CB1 receptor [1]; IC50, at 100 nM CP55,940): 0.0492 µM; IC50 (CB1 receptor [1]; pIC50 ± SEM, CP55,940 10 nM): 0.0832 µM; IC50 (CB1 receptor [1]; pIC50 ± SEM, CP55,940 1 μM): 0.0398 µM; IC50 (CB1 receptor [1]; pIC50 ± SEM, CP55,940 10 μM): 0.0501 µM; Kb (CB1 receptor [2]; [6]): 0.195 µM; Kb (CB1 receptor [2]; in presence of 30 μM GDP): 1.82 µM; effect on feeding in mice (mice): did not observe an effect; EC50 (CB1 receptor [4]): 0.295 µM
N#Cc1ccc(NC(=O)Nc2cccc(-c3cccc(N4CCCC4)n3)c2)cc1 [RTICBM-28]	201.1 ± 11.95	0.001 ± 0.001	Neither compound decreased response rates	lowered THC potency	did not alter	but not RTICBM-15 or RTICBM-28, decreased THC’s anti-nociceptive effect	−1.13 ± 0.18	477.5 ± 15.14	produced insurmountable antagonism		pIC50 ± SEM (CB1 receptor [1]; CP55,940 10 nM): 7.34 ± 0.05; pIC50 ± SEM (CB1 receptor [1]; CP55,940 1 μM): 7.72 ± 0.03; pIC50 ± SEM (CB1 receptor [1]; CP55,940 10 μM): 7.59 ± 0.03; pKB ± SEM (CB1 receptor [3]; [6]): 6.65 ± 0.11; pKB ± SEM (CB1 receptor [3]; in presence of 30 μM GDP): 5.86 ± 0.10; pEC50 ± SEM for increase in specific binding of [3H]CP55,940 (CB1 receptor [4]; [7]): 6.61 ± 0.07
Cc1c(C(=O)NN2CCCCC2)nn(-c2ccc(Cl)cc2Cl)c1-c1ccc(Cl)cc1 [SR141716, rimonabant]			significantly decreased response rates	blocked THC’s discriminative stimulus effects						without substituting themselves when administered alone	effect on locomotor activity in combination with THC (ICR mice; 3 mg/kg rimonabant and 30 mg/kg THC): increased activity; reversal of THC-induced antinociception, hypothermia, catalepsy (ICR mice; 3 mg/kg rimonabant i.p. before 30 mg/kg THC): rimonabant-reversible; effect on locomotor activity, anti-nociception, rectal temperature, catalepsy when followed by vehicle injection (ICR mice; 10 mg/kg modulator or 3 mg/kg rimonabant i.p., vs vehicle/vehicle): did not have any effect
CCCCCc1cc(O)c2c(c1)OC(C)(C)[C@@H]1CCC(C)=C[C@@H]21 [THC, delta-9-tetrahydrocannabinol]											effect on locomotor activity (ICR mice; THC 30 mg/kg i.p. with vehicle): did not affect locomotor activity; tetrad effects: antinociception, hypothermia, catalepsy (ICR mice; THC 30 mg/kg i.p. with vehicle): produced rimonabant-reversible antinociception (Figure 4B), hypothermia (Figure 4C), and catalepsy (Figure 4D)
CCNC1(C(N)=O)CCN(c2ncnc3c2nc(-c2ccccc2Cl)n3-c2ccc(Cl)cc2)CC1 [otenabant]			significantly decreased response rates	blocked THC’s discriminative stimulus effects						without substituting themselves when administered alone	
CC(=O)[C@H]1CC[C@H]2[C@@H]3CC=C4C[C@@H](O)CC[C@]4(C)[C@H]3CC[C@]12C [pregnenolone]											substitution and response rate effects in combination with vehicle (C57/Bl6J mice; first group, compound alone): neither compound produced substitution or response rate effects; effect on THC's effects in the cannabinoid tetrad (ICR mice; stated in abstract only): did not block THC’s effects
